According to article PMC3057995, “Potent Anti-Tumor Effect Generated by a Novel Human Papillomavirus (HPV) Antagonist Peptide Reactivating the pRb/E2F Pathway” (PLoS ONE, 2011):

Legend:
SiHa cells = experiment: MTT cell viability assay, SiHa; format: cell-based; details: HPV16-positive, 80 µM in Fig. 3C, medium replaced daily, A540, mean ± SE, at least two independent runs in sextuplicate
Experimental: Cell viability was determined with an MTT assay. Briefly, the cells were seeded into 96-well plates at a density of 4–5×10^3 cells/well. The cells were allowed to recover for 24 h before the medium was replaced with DMEM supplemented with peptides at different concentrations. The solvent of the peptides was set as the control. The peptide-supplemented medium was replaced daily and the respective concentrations were maintained. The cells were subjected to an MTT cell proliferation assay at different time points. The plates were incubated at 37°C for 3 h with the addition of 20 µl/well MTT (5 mg/ml). Untransformed MTT in the solution was removed by aspiration. The formazan product was dissolved in DMSO, and plates were shaken vigorously at room temperature for 10–15 min to ensure complete solubilization. The optical density of the formazan solutions was measured by microplate reader at 540 nm.

CaSki cells = experiment: qRT-PCR, CaSki; format: cell-based; details: 80 µM
Experimental: Total RNA was extracted from the cultured cells using TRIzol reagent (Invitrogen, Carlsbad, CA,USA) according to the manufacturer's instructions. qRT-PCR was used to confirm the expression levels of mRNAs. Reverse transcription and qPCR were performed according to the protocol of Reverse Transcriptase System™ and SYBR® premix Ex Taq™ (Perfect Real Time) (TaKaRa, Dalian, P.R. China) on the ABI 7300 Real Time PCR System (Applied Biosystems, Foster City, CA, USA) supplied with analytical software. β-actin mRNA levels were used for normalization. Each sample was determined in triplicate. The results represent means ± SE from three experiment runs.

pRb = pRb phosphorylation Western blot; format: cell-based; details: SiHa, 80 µM, 24 h
HPV16E7/pRb interaction = experiment: Co-IP of HPV16 E7 and pRb in Cos7 cells; format: cell-based; details: Cos7 co-transfected, 80 µM Pep-7
Experimental: For Co-IP, Cos-7 cells seeded in 100 mm plates were co-transfected with HPV16E7-pEYFP-N1 and pRb-pcDNA3.1 using the PEI reagent (Sigma-aldich Chemie GmbH, Steinheim, Germany) described previously. […] Lysate supernate prepared as above were incubated with 10 µl rabbit anti-pRb antibody or mouse anti-flag (negative control) antibody and washed protein G agarose beads (Amersham Biosciences, Little Chalfont, UK) overnight at 4°C under continuous agitation. Beads were subsequently washed four times with the lysis buffer. Bound proteins were eluted by boiling in a Laemmli sample buffer and subjected to western blot assay.

[1] = tested on: mutated cyclin A and E1 promoters; experiment: Luciferase reporter assay, E2F-site-mutated promoters (pMCCNA-Luc, pMCCNE1-Luc), SiHa; format: cell-based; details: 80 µM, 24 h, E2F binding sites mutated
Text: HPV16E7-pEYFP plasmid was constructed by sub-cloning the HPV16E7 gene into the EcoRI and BamHI sites of pEYFP-N1. The HPV16E7 gene was obtained by PCR from HPV16E7- pET28a (+) plasmid, which was maintained by our laboratory, using primers pE7N1f and pE7N1b. The pRb gene was obtained by nest PCR from HeLa cDNA using pRb1, pRb2, pRb3, pRb4 as primers. The PCR product was then inserted into the HindIII and Xho I sites of pcDNA3.1-His/V5-Topo. pA3-Luc-Cyclin D1 luciferase reporter plasmid containing the cyclin D1 promoter sequence −1745 to +134 was maintained by our laboratory. Both pCCNE1-Luc and pCCNA1-Luc were constructed by nest PCR to amplify fragments of cyclins E1 and A promoter sequences (cyclin E1: +3 to +594; cyclin A: −284 to +254) which include E2F binding sites, [47] from HeLa cDNA, respectively. Primers used in pCCNE1-Luc construction were P(CCE1), P(CCE2), P(CCE3), and P(CCE4), while primers P(CCA1), P(CCA2), P(CCA3), and P(CCA4) were used in PCCNA1-Luc construction. The PCR products were then cloned into the Kpn1 and Bgl II sites of the pGL3-enhancer (Promega, Madison, WI, USA) luciferase reporter plasmid. […]
The reporter assays were performed using Bright-Glo™ Luciferase Assay System (Promega, Madison, WI, USA) according to the manufacturer's instructions. […] Each sample was determined in triplicate. […]

HPV16 E7 = experiment: Immunohistochemistry of tumor tissues, HPV16 E7; format: in vivo, mouse (Balb/C-nu/nu); details: 400 µg/mouse group vs control
HPV16 E7 protein = details: peptides 0.08 µM to 800 µM vs HPV16E7 mAb; mean ± SE, three independent experiments
Experimental: HPV16E7 mAb alone, incubated with the coated E7 protein, gave the benchmark absorption value. Absorbance values and inhibitory ratio were collected and calculated as outlined in Materials and Methods.
The specificity and affinity of the positive clones and synthetic peptides were determined by competitive ELISA. 400 ng/well HPV16 E7 protein was coated overnight in microtiter wells at 4°C. The positive clones or peptides at different concentrations mixed with HPV16E7 mAb were incubated with the coated E7 protein in microtiter wells for 3 h. The mixture at the same concentration of the library phage and HPV16E7 mAb was set as negative control. […] HPV16E7 mAb alone at the same concentration, incubated with the coated E7 protein, gave benchmark absorption. The inhibitory ratio was calculated by the following formula: Inhibitory ratio = 100%−(A450 of mixture well/A450 of mAb alone well)×100%.

SACPKGLDWCGG (C&C bridged by disulfide bonds) (disulfide) [Pep-7]
cell proliferation (MTT) (SiHa cells): repressed significantly by Pep-7 in a dose- and time-dependent manner | cyclins A, D1 and E1 RNA expression (CaSki cells): significantly reduced | pRb and HPV16E7 RNA levels (CaSki cells): not affected | phosphorylation of pRb (pRb): not affected significantly | co-immunoprecipitation of HPV16E7 with pRb (HPV16E7/pRb interaction): HPV16E7 could not be immunoprecipitated by the pRb antibodies | activities of mutated promoters (pMCCNA-Luc, pMCCNE1-Luc) [1]: negligible differences from those in control groups | HPV16E7 protein level in tumor tissue (HPV16 E7): decreased | binding to HPV16 E7 (HPV16 E7 protein): bound to HPV16 E7 with high affinity compared with the control peptide N-pep
